Target: Neuraminidase (Influenza A virus, UniProt B4URF0)
Type: cell-based, Influenza A virus (A/WSN/1933(H1N1)), HEK293

Neuraminidase, sequence (B4URF0 whole entry): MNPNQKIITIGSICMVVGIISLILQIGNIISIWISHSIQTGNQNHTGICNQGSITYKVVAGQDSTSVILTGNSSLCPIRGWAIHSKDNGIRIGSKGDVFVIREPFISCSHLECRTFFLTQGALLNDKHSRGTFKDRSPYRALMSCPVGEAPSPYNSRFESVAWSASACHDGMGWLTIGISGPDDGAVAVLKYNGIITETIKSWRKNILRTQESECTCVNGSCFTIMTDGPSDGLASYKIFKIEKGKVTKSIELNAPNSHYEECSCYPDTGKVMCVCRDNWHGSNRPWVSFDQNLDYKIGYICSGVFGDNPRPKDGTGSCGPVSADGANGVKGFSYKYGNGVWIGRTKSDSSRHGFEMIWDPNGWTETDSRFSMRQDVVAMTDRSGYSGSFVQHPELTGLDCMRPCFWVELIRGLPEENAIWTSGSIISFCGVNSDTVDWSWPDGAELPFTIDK

SMILES	IC50
CCCCCCOP(=O)(O)[C@@H]1C[C@@H]([C@@H](NC(C)=O)C(CC)CC)[C@H](NC(=N)N)C1	1.6 nM
CCCCCCOP(=O)(O)[C@H]1C[C@@H](NC(=N)N)[C@H]([C@@H](NC(C)=O)C(CC)CC)[C@@H]1O	0.5 nM
CCCCCCOP(=O)(O)C1=C[C@@H]([C@@H](NC(C)=O)C(CC)CC)[C@H](NC(=N)N)C1	1.5 nM
CCOP(=O)(O)[C@H]1C[C@@H](NC(=N)N)[C@H]([C@@H](NC(C)=O)C(CC)CC)[C@@H]1O	0.9 nM
CCOP(=O)(O)[C@@H]1C[C@@H]([C@@H](NC(C)=O)C(CC)CC)[C@H](NC(=N)N)C1	1 nM
CCC(CC)[C@H](NC(C)=O)[C@@H]1C[C@@H](P(=O)(O)O)C[C@H]1NC(=N)N	2.9 nM

Source: ChEMBL document CHEMBL3817747 (J Med Chem, 2016)
